Results as given in US20250215371A1, “MOTOR UNIT CHIP, MANUFACTURING METHOD THEREOF AND METHOD OF DETECTING PATHOLOGICAL EVENT USING THE SAME” (Taipei Medical University, priority 2023, published 2025).

Assays:
Assay type in all cases: cell-based, mouse
[1] = tested on: MNs; experiment: Calcium imaging (fura-2) of motor neurons in the motor unit chip; details: n=8 fields
Procedure: (§1) Tri-cultures on 12.5 mm glass coverslips were briefly washed in HEPES Hanks' Buffer Solution (HHBS) (5.6 mM glucose, 20 mM Hepes, 3 mM NaHCO3, 0.3 mM Na2HPO4, 0.4 mM KH2PO4, 137 mM NaCl, 5.0 mM KCl, […], 4.1 mM MgSO4, 1.26 mM CaCl2, pH=7.4) and then the coverslip was incubated with fura-2 AM in 0.04% pluronic acid dissolved in HHBS to a final concentration of 20 μM for 30 mins at 37° C. After loading indicator, coverslips were washed in fresh HBSS for 10 mins at 37° C. and then transferred to an imaging chamber for microscopy experiments. Fura-2 imaging was performed on an Olympus IX71 microscope using a 20× objective lens. […] Intracellular Ca^2+ concentration ([Ca^2+]i) was monitored by sequential excitation (1 Hz) of fura-2 at 340 and 380 nm. […]
(§2) Images were processed using MetaFluor Analyst to draw regions of interest (ROIs), subtract background, and generate 340/380 ratios. […] Criterion “1” was empirically determined to exclude cells with poor signal to noise ratio. […]
(§3) Data were analyzed using the Student's t test. […] For statistical analyses of calcium image, MN and myotube data were assessed for normality using the D′Agostino-Pearson normality test. […] Percent responders was calculated using number of responders/total MNs or myotubes in the field.

[2] = tested on: Schwann cells; experiment: Calcium imaging (fura-2) of Schwann cells in the tri-culture; details: 50 mM extracellular K^+ or 10 μM ACh
Procedure: After loading indicator, coverslips were washed in fresh HBSS for 10 mins at 37° C. and then transferred to an imaging chamber for microscopy experiments. Fura-2 imaging was performed on an Olympus IX71 microscope using a 20× objective lens. Excitation wavelength was selected with a galvanometer-driven monochromator (8 nm slit width) coupled to a 75 W xenon arc lamp (Optoscan; Cairn Research). […] A single image was acquired at 610 nm to identify mApple expressing MNs in the field. Fluorescent images were captured using a cooled charge-coupled device camera (Cascade 512B; Roper Scientific) and Metafluor acquisition software (Molecular Devices). All fura-2 experiments were performed in HBSS buffer at room temperature. To depolarize MNs the extracellular K^+ concentration was increased to 50 mM with K^+ exchanged reciprocally for Na+in HHBS. For myotube stimulation 10 μM ACh was applied by bath perfusion. A 60 s baseline in HHBS was acquired before stimulation of each coverslip. High K^+ was applied for 30 s and ACh for 1 min. After stimulus application, a washout of 60 s was performed. Background images were acquired after each experiment; the coverslip was wiped clean, then 20 frames were acquired using the same parameters as above. Images were processed using MetaFluor Analyst to draw regions of interest (ROIs), subtract background, and generate 340/380 ratios. […]

[3] = tested on: myotubes; experiment: Calcium imaging (fura-2) of myotubes in the motor unit chip; details: n=8 fields
Procedure: as §1, §2, §3

[Cl-].[K+] [K^+]
MNs responded to 50 mM K^+ stimulation (percent responders) ([1]; 50 mM K^+ for 30 s, 43/62 cells): 70%
depolarization-evoked peak 340/380 ratio ([Ca^2+]i) ([1]; 50 mM K^+, basal 340/380 ratio 0.62±0.06, mean ±SD): 1.83±1.41
changes in [Ca^2+]i in Schwann cells [2]: did not show any changes in [Ca^2+]i

CC(=O)OCC[N+](C)(C)C [ACh, acetylcholine]
myotubes responded to ACh stimulation (percent responders) ([3]; 10 μM ACh for 60 s, 24/27 cells): 89%
ACh-evoked peak 340/380 ratio ([Ca^2+]i) ([3]; 10 μM ACh, basal 340/380 ratio 0.68±0.12, mean ±SD): 3.62±2.73
